US20070128719A1, “ISOLATION AND EXPANSION OF ANIMAL CELLS IN CELL CULTURES” (TissueTech, Inc., priority 2003, published 2007)

Tests used:
human limbal explants = experiment: Epithelial outgrowth from human limbal explants cultured on intact AM with kinase inhibitors; type: cell-based; details: 10 μM
Protocol: Human AM was provided by Bio-Tissue (Miami, Fla.) and stored at −80° C. before use. AM was devitalized by freezing and thawing and washed three times with HBSS before being fastened onto a 30 mm culture insert, Millicel-CM (which generated an insert with 23 mm diameter covered by AM), and placed in a 6 well plate (Meller, D. and Tseng S C G, Invest Ophthalmol Vis Sci., 40:878-86, 1999).
After removal of excessive sclera, iris, corneal endothelium, conjunctiva, and Tenon's capsule, the limbal ring was separated by a 7.5 mm trephine from donor human corneas. Each limbal ring was rinsed 3 times with SHEM media. The limbal ring was then exposed for 10 min to 1.2 units/ml Dispase II in Mg^2+- and Ca^2+-free HBSS at 37° C. under 95% humidity and 5% CO2. Following three rinses with SHEM medium, each limbal ring was subdivided into two halves and each half further subdivided into 6 pieces of 1×1.5×2.5 mm explants. To eliminate variations of age, sex, and race, explants from the corresponding position of the same donor cornea were selected for the control and the experimental group, respectively. An explant was placed on the center of intact AM or plastic with the epithelial side facing up and cultured in SHEM medium. The experimental group was added with the inhibitor of desired concentration, while the control group was added with the same concentration of DMSO as the vehicle which was used to dissolve each inhibitor. The culture was maintained at 37° C. under 95% humidity and 5% CO2, the medium was changed every other day, and their outgrowth was monitored daily for 17 days using an inverted phase microscope (Nikon, Japan). The outgrowth area was digitized every other day by Adobe Photoshop 5.5 and analyzed by NIH ImageJ 1.30v (NIH, Bethesda, Md.).
All experiments were performed at least in triplicate. Summary data were reported as means±S.D., compiled and analyzed by MicroSoft Excel™ (MicroSoft, Redmont, Wash.). The mean and standard deviation were calculated for each group using the appropriate version of Student's unpaired t-test. Test results were reported as two-tailed p values, where p<0.05 was considered statistically significant.

p44/42 MAPK = experiment: Western blot of p44/42 MAPK phosphorylation in limbal epithelial cells expanded on intact AM; type: cell-based, human; details: 10 μM
[1] = test system: corneal limbal epithelial cells; experiment: Type IV collagen immunostaining of epithelial outgrowth from human limbal explants on denuded AM; type: cell-based; details: explant on dAM in SHEM
[2] = test system: rabbit corneal limbal explant; experiment: Rabbit limbal explant outgrowth on type I collagen coated insert, airlift culture; type: cell-based; details: SHEM
Protocol: (§1) Human limbal tissue cubes can be placed in the alternative on the center of type I collagen coated inserts and cultured in SHEM medium under submerge and airlift manners, of which the later was also added with p38 inhibitor. In the submerge manner, 4 ml culture medium was added to the culture dish to cover the entire limbal explant. In the airlift manner, 2 ml culture medium was added so as to let the insert bottom sit on the air-liquid interface. That is, the explant was exposed to air, but the remaining explant stroma was submerged in the medium meniscus. In the airlift+p38 inhibitor group, p 38 inhibitor SB 203580 was added to culture medium at a concentration of 10 μM. Cultures were incubated at 37° C. under 5% CO2 and 95% air, and the medium is changed every 2 days. Rabbit limbal explants are also cultured in the same fashion as the human tissue. Limbal tissue cubes are placed on the center of type I collagen coated inserts and cultured under airlift manner in SHEM medium with or without p38 inhibitor SB203580 for 1 week.
To study the effect of p38 inhibitor on the outgrowth epithelial sheet, rabbit corneal limbal explant is cultured on the type I collagen coated insert under the airlift manner in SHEM medium for 1 week with or without addition of p38 inhibitor (FIG. 2).

[3] = test system: limbal epithelial progenitor cells; experiment: K12 and K10 immunostaining of human limbal explants in airlift culture; type: cell-based; details: SHEM, 2 weeks, 10 μM
Protocol: as §1
To study the effect of p38 inhibitor on the differentiation of limbal epithelial progenitor cells, human corneal limbal explants were cultured under submerge and airlift manners, of which the later was added with or without p38 inhibitor, on type I collagen coated inserts in SHEM medium for 2 weeks. […]

p38 MAPK = experiment: Western blot of p38 MAPK phosphorylation in limbal epithelial cells expanded on intact AM; details: 10 μM

C[S+]([O-])c1ccc(-c2nc(-c3ccncc3)c(-c3ccc(F)cc3)[nH]2)cc1 (stereo not shown) [SB203580]
day at which epithelial outgrowth was noted / started (human limbal explants): 5 days | epithelial outgrowth (human limbal explants; limbal explant on intact AM in SHEM, up to 17 days, vs DMSO control): did not change the outgrowth | phosphorylation of p44/42 MAPK (Thr202 and Tyr204) (p44/42 MAPK): did increase | type IV collagen staining of outgrowth epithelial cells ([1]; 2 weeks): intracellular staining | type IV collagen staining of outgrowth epithelial cells ([1]; 4 weeks): strong linear band staining | outgrowth rate based on outgrowth surface area ([2]; 1 week): not inhibited | outgrowth sheet in H&E stained cross-sections ([2]; with p38 inhibitor): intact and consisted of uniformly two layers | K10 positive cells in limbal and corneal epithelium [3]: no K10 positive cells | K12 expression in the limbal epithelium [3]: restored | phosphorylation at Thr180/Tyr182 of p38 MAPK (p38 MAPK): abolished
